Measured values published in patent US20100249082A1, “MODULATORS OF HYPOXIA INDUCIBLE FACTOR-1 AND RELATED USES” (Bionaut Pharmaceuticals INC., priority 2007, published 2010).

Legend:
Na^+, K^+-ATPase [1] = experiment: cell-based; details: for Inhibition (%) / Normalized Uptake (%): CHO-K1; for Sample Solubility: CHO-K1 screen test wells, 1% DMSO
Description: (§1) Compounds were screened using Ion Channel Research (ICR) technology and a non-radioactive Rubidium Uptake Assay
(§2) For all the test compounds and standard blockers, 100× solutions were used to prepare 1× test doses for Na^+, K^+-ATPase screen in CHO cell line. The final DMSO concentration in each well was 1%.
(§3) • 1. […] Rb^+ Uptake: Cells were washed with 200 μl of Rb^+ Uptake Buffer once and R^+ loaded by application of 198 μl R^+ Uptake Buffer. Compounds were added at 2 μl/well of a 100× stock solution in 100% DMSO in the uptake buffer followed by incubation for 30 minutes at room temperature (c. 22° C.). The total volume in each well was 200 μl (198 μl of R^+ Uptake Buffer and 2 μl of the 100× compound). The 100× compound solution gets diluted in R^+ Uptake Buffer to 1× and the DMSO to 1%. • 3. Wash: Residual R^+ and compound were removed by four successive washes with 200 μl of SPA-Wash Buffer. • 4. Cell Lysis: Intracellular samples were obtained by whole cell lysis with the application of 200 μl Lysis Solution. • 5. Analysis: The level of R^+ in the intracellular samples was measured by ICR8000 (Aurora Biomed Inc., Vancouver, Canada). using flame atomic absorption spectroscopy.

Na^+, K^+-ATPase [2] = target: Na^+, K^+-ATPase (Cricetulus griseus, UniProt A0A8C2N4Z0); experiment: cell-based
Description: as §1, §2, §3

Na^+, K^+-ATPase [3] = target: T1, Na^+, K^+-ATPase (Homo sapiens, UniProt P05023); experiment: cell-based; details: for inhibition at 0.01 µM / inhibition at 0.1 µM / inhibition at 1 µM / inhibition at 5 µM / inhibition at 10 µM / inhibition at 50 µM: HEK293, HEK-293; for inhibition at 0.01 µM: Log[drug](M) −8.0; for inhibition at 5 µM: Log[drug](M) −5.3; for inhibition at 10 µM: Log[drug](M) −5.0; for inhibition at 50 µM: Log[drug](M) −4.3; for Rank order: HEK-293, ranked on potency (IC50 value); for Sample Solubility: HEK-293 screen test wells, 1% DMSO
T1 construct: The HEK-293 cell line endogenously expressing Na^+, K^+-ATPase; endogenous in cells; host or cells: HEK-293
Description: Cells were plated at a density of 50,000 cells/well in 96-well microplates and incubated at 37° C., 5% CO2 until 80-90% confluency was attained

[4] = Sample solubility noted in the rubidium uptake assay; assay type: physicochemical; details: DMSO 1.0%

Structure (SMILES)	Inhibition (%) (Na^+, K^+-ATPase [1]; dose 1.0 uM)	Normalized Uptake (%) (Na^+, K^+-ATPase [1]; dose 1.0 uM)	Inhibition (%) (Na^+, K^+-ATPase [1]; dose 5.0 uM)	Normalized Uptake (%) (Na^+, K^+-ATPase [1]; dose 5.0 uM)	Inhibition (%) (Na^+, K^+-ATPase [1]; dose 10 uM)	Normalized Uptake (%) (Na^+, K^+-ATPase [1]; dose 10 uM)	Inhibition (%) (Na^+, K^+-ATPase [1]; dose 50 uM)	Normalized Uptake (%) (Na^+, K^+-ATPase [1]; dose 50 uM)	Inhibition (%) (Na^+, K^+-ATPase [1]; dose 100 uM)	Normalized Uptake (%) (Na^+, K^+-ATPase [1]; dose 100 uM)	Inhibition (%) (Na^+, K^+-ATPase [1]; dose 200 uM)	Normalized Uptake (%) (Na^+, K^+-ATPase [1]; dose 200 uM)	Inhibition (%) (Na^+, K^+-ATPase [1]; dose 500 uM)	Normalized Uptake (%) (Na^+, K^+-ATPase [1]; dose 500 uM)	Sample Solubility (Na^+, K^+-ATPase [1])	IC50 (Na^+, K^+-ATPase [2]) [µM]	IC50 (Na^+, K^+-ATPase [3]) [µM]	Rank order (Na^+, K^+-ATPase [3])	Inhibition (%) (Na^+, K^+-ATPase [1]; dose 0.50 uM)	Normalized Uptake (%) (Na^+, K^+-ATPase [1]; dose 0.50 uM)	further results
C[C@]12CCC(=NOCCCCN3CCCCC3)C=C1CCC1C2CC[C@]2(C)[C@@H](c3ccc(=O)oc3)CC[C@]12O (some centres unmarked) [BP247, 3-[4-(Piperidinobutoxy)imino]-scillarinone]	−0.3	96.2	9.2	88.2	15.2	83.2	44.9	58.3	67.7	39.0	89.0	21.1	100.0	11.9	Good	47.4	0.183	1	–	–	inhibition at 0.5 µM (Na^+, K^+-ATPase [2]; CHO-K1): 0%; remaining activity at 0.5 µM (Na^+, K^+-ATPase [2]; CHO-K1, 0.5 h, read-out: Normalized Uptake (%)): 96%; inhibition at 0.01 µM (Na^+, K^+-ATPase [3]): 0%; inhibition at 0.1 µM (Na^+, K^+-ATPase [3]; Log[drug](M) −7.0): 44.9%; inhibition at 0.1 µM (Na^+, K^+-ATPase [3]; Log[drug](M) −7.3): 17.1%; inhibition at 1 µM (Na^+, K^+-ATPase [3]; Log[drug](M) −6.0): 79.9%; inhibition at 1 µM (Na^+, K^+-ATPase [3]; Log[drug](M) −6.3): 68.4%; inhibition at 5 µM (Na^+, K^+-ATPase [3]): 94.8%; inhibition at 10 µM (Na^+, K^+-ATPase [3]): 93.5%; inhibition at 50 µM (Na^+, K^+-ATPase [3]): 100%; Sample Solubility (Na^+, K^+-ATPase [3]): Good
C[C@]12CCC(=NOCCCCCN3CCCCC3)C=C1CCC1C2CC[C@]2(C)[C@@H](c3ccc(=O)oc3)CC[C@]12O (some centres unmarked) [BP248, 3-[5-(Piperidinopentoxy)imino]-scillarinone]	0.0	105.6	9.1	96.6	27.0	81.1	61.2	51.5	84.1	31.6	94.0	23.1	100.0	17.9	Good	27.9	5.55	4	1.3	104.5	inhibition at 0.01 µM (Na^+, K^+-ATPase [3]): 0%; inhibition at 0.1 µM (Na^+, K^+-ATPase [3]; Log[drug](M) −7.0): 1.7%; inhibition at 0.1 µM (Na^+, K^+-ATPase [3]; Log[drug](M) −7.3): 0.8%; inhibition at 1 µM (Na^+, K^+-ATPase [3]; Log[drug](M) −6.0): 10.1%; inhibition at 1 µM (Na^+, K^+-ATPase [3]; Log[drug](M) −6.3): 4.5%; inhibition at 5 µM (Na^+, K^+-ATPase [3]): 44.7%; inhibition at 10 µM (Na^+, K^+-ATPase [3]): 74%; inhibition at 50 µM (Na^+, K^+-ATPase [3]): 100%; Sample Solubility (Na^+, K^+-ATPase [3]): Good
C[C@]12CCC(=NOCCN3CCC(Cc4ccccc4)CC3)C=C1CCC1C2CC[C@]2(C)[C@@H](c3ccc(=O)oc3)CC[C@]12O (some centres unmarked) [BP249, 3-[2-(4-Benzylpiperidinoethoxy)imino]-scillarinone]	0.0	103.5	2.6	100.7	17.9	87.9	54.2	57.3	73.4	41.0	87.8	29.0	100.0	18.7	Good	41.9	5.53	4	0.6	103.0	Sample Solubility [4]: Good
C[C@H]1O[C@@H](O[C@H]2[C@@H](O)C[C@H](O[C@H]3[C@@H](O)C[C@H](O[C@H]4CC[C@@]5(C)[C@H](CC[C@@H]6[C@@H]5CC[C@]5(C)[C@@H](C7=CC(=O)OC7)CC[C@]65O)C4)O[C@@H]3C)O[C@@H]2C)C[C@H](O)[C@@H]1O [Digitoxin, reference compound]	6.2	93.8	8.6	91.4	19.8	80.2	51.9	48.1	76.8	23.2	–	–	89.7	10.3	–	44.9	1.1	2	0.0	100.0	Inhibition (%) (Na^+, K^+-ATPase [1]; dose 1000 uM): 100.0%; Normalized Uptake (%) (Na^+, K^+-ATPase [1]; dose 1000 uM): 0.0%
